Reference: paper PMC8401933 (Molecules, 2021)

What was measured:
Experiment in all cases: KINOMEscan binding
Conditions in all cases: read-out: Percent Control
CDK3 = target: T1, CDK3 (Homo sapiens, UniProt Q00526)
T1 construct: purchased Eurofins DiscoverX KINOMEscan

ULK3 = target: T2, ULK3 (Homo sapiens, UniProt Q6PHR2)
T2 construct: purchased Eurofins DiscoverX KINOMEscan

MKK7 = target: T3, MKK7 (Homo sapiens, UniProt O14733)
T3 construct: purchased Eurofins DiscoverX KINOMEscan

FYN = target: T4, FYN (Homo sapiens, UniProt P06241)
T4 construct: purchased Eurofins DiscoverX KINOMEscan

MEK5 = target: T5, MEK5 (Homo sapiens, UniProt Q13163)
T5 construct: purchased Eurofins DiscoverX KINOMEscan

DMPK = target: T6, DMPK (Homo sapiens, UniProt Q09013)
T6 construct: purchased Eurofins DiscoverX KINOMEscan

CDK2 = target: T7, CDK2 (Homo sapiens, UniProt P24941)
T7 construct: purchased Eurofins DiscoverX KINOMEscan

MINK = target: T8, MINK (Homo sapiens, UniProt Q8N4C8)
T8 construct: purchased Eurofins DiscoverX KINOMEscan

MAP3K15 = target: T9, MAP3K15 (Homo sapiens, UniProt Q6ZN16)
T9 construct: purchased Eurofins DiscoverX KINOMEscan

CDK4 = target: T10, CDK4 (Homo sapiens, UniProt P11802)
T10 construct: purchased Eurofins DiscoverX KINOMEscan

ALK(C1156Y) = target: T11, ALK(C1156Y) (Homo sapiens, UniProt Q9UM73, C1156Y)
T11 construct: purchased Eurofins DiscoverX KINOMEscan

TXK = target: T12, TXK (Homo sapiens, UniProt P42681)
T12 construct: purchased Eurofins DiscoverX KINOMEscan

KIT(V559D) = target: T13, KIT(V559D) (Homo sapiens, UniProt P10721, V559D)
T13 construct: purchased Eurofins DiscoverX KINOMEscan

HIPK4 = target: T14, HIPK4 (Homo sapiens, UniProt Q8NE63)
T14 construct: purchased Eurofins DiscoverX KINOMEscan

SgK110 = target: T15, SgK110 (Homo sapiens, UniProt P0C264)
T15 construct: purchased Eurofins DiscoverX KINOMEscan

MEK6 = target: T16, MEK6 (Homo sapiens, UniProt P52564)
T16 construct: purchased Eurofins DiscoverX KINOMEscan

PKAC-beta = target: T17, PKAC-beta (Homo sapiens, UniProt P22694)
T17 construct: purchased Eurofins DiscoverX KINOMEscan

[1] = target: T18, ABL1(F317I)-phosphorylated (Homo sapiens, UniProt P00519, F317I)
T18 construct: purchased Eurofins DiscoverX KINOMEscan

ADCK4 = target: T19, ADCK4 (Homo sapiens, UniProt Q96D53)
T19 construct: purchased Eurofins DiscoverX KINOMEscan

ABL2 = target: T20, ABL2 (Homo sapiens, UniProt P42684)
T20 construct: purchased Eurofins DiscoverX KINOMEscan

PIK3CA(E545K) = target: T21, PIK3CA(E545K) (Homo sapiens, UniProt P42336, E545K)
T21 construct: purchased Eurofins DiscoverX KINOMEscan

BMPR1A = target: T22, BMPR1A (Homo sapiens, UniProt P36894)
T22 construct: purchased Eurofins DiscoverX KINOMEscan

GAK = target: T23, GAK (Homo sapiens, UniProt O14976)
T23 construct: purchased Eurofins DiscoverX KINOMEscan

PIK3CA = target: T24, PIK3CA (Homo sapiens, UniProt P42336)
T24 construct: purchased Eurofins DiscoverX KINOMEscan

PRKR = target: T25, PRKR (Homo sapiens, UniProt P19525)
T25 construct: purchased Eurofins DiscoverX KINOMEscan

DRAK1 = target: T26, DRAK1 (Homo sapiens, UniProt Q9UEE5)
T26 construct: purchased Eurofins DiscoverX KINOMEscan

GCN2(Kin.Dom.2,S808G) = target: T27, GCN2(Kin.Dom.2,S808G) (Homo sapiens, UniProt Q9P2K8, S808G)
T27 construct: GCN2(Kin.Dom.2,S808G); purchased Eurofins DiscoverX KINOMEscan

PIP5K2B = target: T28, PIP5K2B (Homo sapiens, UniProt P78356)
T28 construct: purchased Eurofins DiscoverX KINOMEscan

PRKD3 = target: T29, PRKD3 (Homo sapiens, UniProt O94806)
T29 construct: purchased Eurofins DiscoverX KINOMEscan

PIK3C2B = target: T30, PIK3C2B (Homo sapiens, UniProt O00750)
T30 construct: purchased Eurofins DiscoverX KINOMEscan

NEK5 = target: T31, NEK5 (Homo sapiens, UniProt Q6P3R8)
T31 construct: purchased Eurofins DiscoverX KINOMEscan

PAK4 = target: T32, PAK4 (Homo sapiens, UniProt O96013)
T32 construct: purchased Eurofins DiscoverX KINOMEscan

CTK = target: T33, CTK (Homo sapiens, UniProt P42679)
T33 construct: purchased Eurofins DiscoverX KINOMEscan

PFCDPK1(P.falciparum) = target: T34, PFCDPK1(P.falciparum) (Plasmodium falciparum, UniProt P62344)
T34 construct: purchased Eurofins DiscoverX KINOMEscan

BRSK2 = target: T35, BRSK2 (Homo sapiens, UniProt Q8IWQ3)
T35 construct: purchased Eurofins DiscoverX KINOMEscan

MAST1 = target: T36, MAST1 (Homo sapiens, UniProt Q9Y2H9)
T36 construct: purchased Eurofins DiscoverX KINOMEscan

T24 sequence (P42336 whole entry): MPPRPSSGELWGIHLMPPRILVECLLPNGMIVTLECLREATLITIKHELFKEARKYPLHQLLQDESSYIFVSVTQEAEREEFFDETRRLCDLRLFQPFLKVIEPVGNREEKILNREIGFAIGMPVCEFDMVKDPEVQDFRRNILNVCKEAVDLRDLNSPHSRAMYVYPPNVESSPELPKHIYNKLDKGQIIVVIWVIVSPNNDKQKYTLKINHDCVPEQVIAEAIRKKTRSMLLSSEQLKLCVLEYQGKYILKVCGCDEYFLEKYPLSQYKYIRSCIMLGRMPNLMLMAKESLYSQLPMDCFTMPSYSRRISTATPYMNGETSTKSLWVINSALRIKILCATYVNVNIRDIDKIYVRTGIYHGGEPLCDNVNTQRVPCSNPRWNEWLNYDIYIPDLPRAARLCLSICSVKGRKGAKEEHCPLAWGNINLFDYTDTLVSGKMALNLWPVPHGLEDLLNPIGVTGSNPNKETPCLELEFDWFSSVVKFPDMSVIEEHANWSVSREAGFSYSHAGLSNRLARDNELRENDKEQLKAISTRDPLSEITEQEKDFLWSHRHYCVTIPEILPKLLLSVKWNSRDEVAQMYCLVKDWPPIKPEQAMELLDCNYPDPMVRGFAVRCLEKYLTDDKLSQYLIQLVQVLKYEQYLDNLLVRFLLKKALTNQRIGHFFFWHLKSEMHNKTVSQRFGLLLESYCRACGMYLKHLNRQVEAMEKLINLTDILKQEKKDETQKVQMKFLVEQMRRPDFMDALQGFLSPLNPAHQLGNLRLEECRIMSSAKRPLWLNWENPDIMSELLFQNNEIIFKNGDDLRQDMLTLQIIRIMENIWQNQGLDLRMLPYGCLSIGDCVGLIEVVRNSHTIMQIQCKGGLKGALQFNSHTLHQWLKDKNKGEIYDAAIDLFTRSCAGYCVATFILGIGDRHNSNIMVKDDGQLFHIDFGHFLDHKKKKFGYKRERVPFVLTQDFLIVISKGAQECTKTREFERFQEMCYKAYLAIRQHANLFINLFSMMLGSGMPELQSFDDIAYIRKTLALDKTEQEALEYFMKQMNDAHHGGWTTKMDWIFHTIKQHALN
T5 sequence (Q13163 whole entry): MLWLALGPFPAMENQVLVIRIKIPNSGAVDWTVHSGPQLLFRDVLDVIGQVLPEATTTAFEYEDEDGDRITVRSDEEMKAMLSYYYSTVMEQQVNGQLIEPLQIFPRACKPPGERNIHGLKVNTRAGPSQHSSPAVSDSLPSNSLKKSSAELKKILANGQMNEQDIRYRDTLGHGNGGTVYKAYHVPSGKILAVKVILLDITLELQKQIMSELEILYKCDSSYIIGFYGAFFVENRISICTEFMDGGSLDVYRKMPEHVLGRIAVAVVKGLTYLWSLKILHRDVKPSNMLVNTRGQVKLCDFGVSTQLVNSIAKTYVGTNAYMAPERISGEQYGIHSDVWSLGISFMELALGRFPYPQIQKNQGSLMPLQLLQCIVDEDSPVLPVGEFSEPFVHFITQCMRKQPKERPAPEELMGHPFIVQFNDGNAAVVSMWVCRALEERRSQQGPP
T20 sequence (P42684 whole entry): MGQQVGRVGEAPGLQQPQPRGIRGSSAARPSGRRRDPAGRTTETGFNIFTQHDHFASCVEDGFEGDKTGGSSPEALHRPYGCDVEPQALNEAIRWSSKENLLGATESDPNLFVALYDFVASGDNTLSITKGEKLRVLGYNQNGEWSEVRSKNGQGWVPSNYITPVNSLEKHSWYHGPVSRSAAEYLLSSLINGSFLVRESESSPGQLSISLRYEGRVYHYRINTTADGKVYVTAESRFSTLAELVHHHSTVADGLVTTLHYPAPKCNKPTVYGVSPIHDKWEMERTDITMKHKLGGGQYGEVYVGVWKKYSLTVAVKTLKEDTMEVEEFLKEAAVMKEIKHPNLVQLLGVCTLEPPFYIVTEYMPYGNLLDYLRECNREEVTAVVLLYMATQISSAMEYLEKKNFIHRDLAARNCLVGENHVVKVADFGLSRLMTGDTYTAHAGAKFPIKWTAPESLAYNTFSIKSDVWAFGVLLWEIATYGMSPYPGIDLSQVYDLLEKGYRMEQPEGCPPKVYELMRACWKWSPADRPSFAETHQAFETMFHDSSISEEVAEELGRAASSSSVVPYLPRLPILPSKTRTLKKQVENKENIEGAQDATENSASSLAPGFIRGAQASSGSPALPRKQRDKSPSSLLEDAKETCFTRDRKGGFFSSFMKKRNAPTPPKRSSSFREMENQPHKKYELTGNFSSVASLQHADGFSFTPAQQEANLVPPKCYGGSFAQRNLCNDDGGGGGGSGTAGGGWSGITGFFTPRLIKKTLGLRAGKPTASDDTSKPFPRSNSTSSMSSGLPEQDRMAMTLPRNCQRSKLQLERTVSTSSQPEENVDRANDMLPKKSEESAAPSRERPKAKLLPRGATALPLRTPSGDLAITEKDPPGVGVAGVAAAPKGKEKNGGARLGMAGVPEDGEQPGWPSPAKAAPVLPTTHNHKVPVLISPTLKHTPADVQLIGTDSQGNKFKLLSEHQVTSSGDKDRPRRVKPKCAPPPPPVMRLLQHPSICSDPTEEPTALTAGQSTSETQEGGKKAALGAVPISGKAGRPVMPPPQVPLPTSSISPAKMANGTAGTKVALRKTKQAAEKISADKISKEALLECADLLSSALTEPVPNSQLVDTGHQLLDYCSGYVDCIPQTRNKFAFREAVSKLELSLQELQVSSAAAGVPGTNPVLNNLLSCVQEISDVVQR
T12 sequence (P42681 whole entry): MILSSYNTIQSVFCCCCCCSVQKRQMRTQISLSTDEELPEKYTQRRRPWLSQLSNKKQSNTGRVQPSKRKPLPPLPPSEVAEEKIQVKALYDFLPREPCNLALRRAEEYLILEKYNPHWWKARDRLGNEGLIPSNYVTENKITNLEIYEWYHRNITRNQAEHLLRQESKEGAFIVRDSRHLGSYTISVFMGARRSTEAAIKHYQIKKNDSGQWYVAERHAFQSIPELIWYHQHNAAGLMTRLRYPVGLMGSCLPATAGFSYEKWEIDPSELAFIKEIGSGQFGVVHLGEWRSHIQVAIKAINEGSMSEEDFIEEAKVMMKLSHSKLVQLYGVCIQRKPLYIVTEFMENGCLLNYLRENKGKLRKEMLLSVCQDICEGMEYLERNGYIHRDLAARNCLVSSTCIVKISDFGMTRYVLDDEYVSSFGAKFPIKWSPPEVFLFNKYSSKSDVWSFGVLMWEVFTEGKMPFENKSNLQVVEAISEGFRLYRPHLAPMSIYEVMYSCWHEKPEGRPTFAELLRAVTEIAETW
T19 sequence (Q96D53 whole entry): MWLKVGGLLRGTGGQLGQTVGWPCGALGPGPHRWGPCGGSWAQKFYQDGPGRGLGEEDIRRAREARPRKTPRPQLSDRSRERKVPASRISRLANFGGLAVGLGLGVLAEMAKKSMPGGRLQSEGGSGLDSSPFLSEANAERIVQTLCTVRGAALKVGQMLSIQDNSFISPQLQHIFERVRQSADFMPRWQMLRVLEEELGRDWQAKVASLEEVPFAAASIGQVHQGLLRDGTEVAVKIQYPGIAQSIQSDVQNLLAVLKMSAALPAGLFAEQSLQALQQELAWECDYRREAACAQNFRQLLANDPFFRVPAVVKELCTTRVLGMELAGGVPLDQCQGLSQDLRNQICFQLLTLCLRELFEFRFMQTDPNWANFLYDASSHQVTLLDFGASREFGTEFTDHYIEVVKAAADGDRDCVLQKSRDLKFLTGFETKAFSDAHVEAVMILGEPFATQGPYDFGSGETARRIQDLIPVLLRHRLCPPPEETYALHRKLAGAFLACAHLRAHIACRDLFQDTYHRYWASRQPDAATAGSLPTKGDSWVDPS
T28 sequence (P78356 whole entry): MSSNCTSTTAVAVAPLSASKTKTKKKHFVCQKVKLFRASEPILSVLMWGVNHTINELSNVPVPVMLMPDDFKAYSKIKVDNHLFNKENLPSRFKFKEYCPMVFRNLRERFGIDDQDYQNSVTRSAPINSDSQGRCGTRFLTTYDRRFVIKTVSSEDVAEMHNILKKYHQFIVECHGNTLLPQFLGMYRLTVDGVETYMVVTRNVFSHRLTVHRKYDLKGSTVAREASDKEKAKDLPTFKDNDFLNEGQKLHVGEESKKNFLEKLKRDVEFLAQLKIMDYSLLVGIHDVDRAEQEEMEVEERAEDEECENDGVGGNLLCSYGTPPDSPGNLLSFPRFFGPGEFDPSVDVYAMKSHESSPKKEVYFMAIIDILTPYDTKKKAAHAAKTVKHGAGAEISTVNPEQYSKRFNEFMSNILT
T34 sequence (P62344 whole entry): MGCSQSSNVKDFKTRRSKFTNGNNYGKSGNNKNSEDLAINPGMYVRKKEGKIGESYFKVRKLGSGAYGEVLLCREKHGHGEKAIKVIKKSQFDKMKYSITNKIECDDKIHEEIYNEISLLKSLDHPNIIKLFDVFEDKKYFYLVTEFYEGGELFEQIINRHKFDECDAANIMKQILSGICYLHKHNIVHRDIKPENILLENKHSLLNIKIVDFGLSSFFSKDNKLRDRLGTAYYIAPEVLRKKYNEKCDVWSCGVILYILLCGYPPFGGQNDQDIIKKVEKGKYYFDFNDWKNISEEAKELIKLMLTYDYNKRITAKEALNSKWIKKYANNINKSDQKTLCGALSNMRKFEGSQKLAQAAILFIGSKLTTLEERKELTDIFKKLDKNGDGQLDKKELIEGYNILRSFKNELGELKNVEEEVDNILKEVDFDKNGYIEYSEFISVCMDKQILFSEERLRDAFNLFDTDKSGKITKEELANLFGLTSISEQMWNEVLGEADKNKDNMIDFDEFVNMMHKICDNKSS
T16 sequence (P52564 whole entry): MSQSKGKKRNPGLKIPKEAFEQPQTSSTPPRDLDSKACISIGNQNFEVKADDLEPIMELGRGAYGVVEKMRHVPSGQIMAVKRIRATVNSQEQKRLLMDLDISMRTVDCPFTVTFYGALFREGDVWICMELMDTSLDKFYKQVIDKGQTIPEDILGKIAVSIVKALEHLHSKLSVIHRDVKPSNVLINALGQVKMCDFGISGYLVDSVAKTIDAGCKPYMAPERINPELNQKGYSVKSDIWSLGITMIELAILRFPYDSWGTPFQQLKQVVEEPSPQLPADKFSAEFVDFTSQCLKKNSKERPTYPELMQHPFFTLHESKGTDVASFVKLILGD

CC(C)NC(=O)COc1cccc(-c2nc(Nc3ccc4[nH]ncc4c3)c3ccccc3n2)c1 [KD025, 2-(3-(4-((1H-indazol-5-yl)amino)quinazolin-2-yl)phenoxy)-N-isopropylacetamide]
remaining binding at 10 µM (CDK3): 92% | remaining binding at 10 µM (ULK3): 90% | remaining binding at 10 µM (MKK7): 73% | remaining binding at 10 µM (FYN): 61% | remaining binding at 10 µM (MEK5): 63% | remaining binding at 10 µM (DMPK): 97% | remaining binding at 10 µM (CDK2): 93% | remaining binding at 10 µM (MINK): 71% | remaining binding at 10 µM (MAP3K15): 82% | remaining binding at 10 µM (CDK4): 100% | remaining binding at 10 µM (ALK(C1156Y)): 65% | remaining binding at 10 µM (TXK): 76% | remaining binding at 10 µM (KIT(V559D)): 72% | remaining binding at 10 µM (HIPK4): 69% | remaining binding at 10 µM (SgK110): 100% | remaining binding at 10 µM (MEK6): 87% | remaining binding at 10 µM (PKAC-beta): 98% | remaining binding at 10 µM [1]: 93% | remaining binding at 10 µM (ADCK4): 100% | remaining binding at 10 µM (ABL2): 92% | remaining binding at 10 µM (PIK3CA(E545K)): 94% | remaining binding at 10 µM (BMPR1A): 89% | remaining binding at 10 µM (GAK): 10% | remaining binding at 10 µM (PIK3CA): 77% | remaining binding at 10 µM (PRKR): 54% | remaining binding at 10 µM (DRAK1): 39% | remaining binding at 10 µM (GCN2(Kin.Dom.2,S808G)): 100% | remaining binding at 10 µM (PIP5K2B): 9.7% | remaining binding at 10 µM (PRKD3): 100% | remaining binding at 10 µM (PIK3C2B): 67% | remaining binding at 10 µM (NEK5): 83% | remaining binding at 10 µM (PAK4): 100% | remaining binding at 10 µM (CTK): 83% | remaining binding at 10 µM (PFCDPK1(P.falciparum)): 66% | remaining binding at 10 µM (BRSK2): 95% | remaining binding at 10 µM (MAST1): 100%
